Source: patent US20230355713A1, “PEPTIDE FOR THERAPEUTIC APPLICATIONS IN THE DERMATOLOGICAL FIELD” (Dompe' Farmaceutici S.P.A., priority 2020, published 2023)
Where no end group is shown, it is not given here.

Experiments:
[1] = tested on: mouse model of human vitiligo; experiment: In vivo efficacy test: skin re-pigmentation, depigmentation score 0 to 5; design: species or system SCF transgenic mice of the C57BL6 line; settings: 200 μg/mL in base cream, topical, twice a day for 8 weeks; 0 to 5 point scale
Experimental: The in vivo capacity of skin re-pigmentation by the NGF 1-14 peptide and the whole NGF protein was compared.
The study was conducted on a mouse model of human vitiligo.
SCF transgenic mice of the C57BL6 line, treated for 10-12 weeks to induce vitiligo using CD8+T cells specific for melanocytes, were shaved twice a week in the dorsal part affected by depigmentation, with an electric razor, in an area of about 6 cm×6 cm. The animals were divided into two groups of equal numbers (8 animals per group). On a first group of animals, topical administration was carried out in two sites of the shaved area spaced from both sides of the midline, applying on the left a topical preparation containing 200 μg/mL of NGF peptide in a base cream vehicle, while on the right side only the base cream (control) was applied. The same procedure was repeated on the second group of animals, applying on the left a topical preparation containing 200 μg/mL of NGF 1-14 peptide in a base cream vehicle, while on the right side only the base cream (control) was applied.
The application was spread evenly twice a day for 8 weeks, in the central part of the shaved area, on a surface of about 2 cm×2 cm. Starting from the second day and thereafter, the areas of interest were cleaned with a cloth before applying the preparations. The animals were kept away from possible sources of ultraviolet light irradiation.
Quantification of epidermal depigmentation was performed using a subjective scoring system based on a 0 to 5 point scale, where 5 represents the most severe degree of depigmentation, reported in the literature (Rebecca L. et al., Curr Protoc Immunol. (2019), 124(1)—February). A trained researcher blinded to the details of the experiment performed the evaluation at the treated site.

sensory nerve fibers = experiment: Histological test: density of sensory nerve fibers in skin biopsies (NF200, TRPV1 antibodies); type: in vivo, SCF transgenic mice of the C57BL6 line; settings: 200 μg/mL in base cream, after the 8-week treatment of example 2a
Description: The in vivo ability of the NGF 1-14 peptide and the NGF whole protein to increase the density of nerve endings was compared.
After the treatment described in example 2a, the animals were sacrificed and skin samples (3 biopsies per point) were taken both from the area treated with NGF1-14 or with NGF, and from the untreated area, for each animal, for the purpose of histological examination.
To evaluate the density of sensory nerve fibers, antibodies directed against the neurofilament protein 200 (NF200; Sigma) specific for large diameter fibers, and antibodies directed against the transient receptor potential vanilloid 1 (TRPV1, Neuromics) were used to measure peripheral sensory fibers (small diameter).

[2] = tested on: primary cell cultures of normal human melanocytes; experiment: In vitro melanin production by melanocytes (melanin content by ELISA); type: cell-based; settings: concentration at which 50% of the maximum concentration of cellular melanin is observed; cultured for one week
Experimental: The in vitro ability of the NGF 1-14 peptide and the NGF whole protein to activate melanin production by melanocytes was compared.
According to already established protocols, primary cell cultures of normal human melanocytes were seeded in Petri dishes and cultured for one week, with and without the presence of the NGF 1-14 peptide at various concentrations, using the whole human NGF protein as a control. The melanin content was measured with the ELISA enzyme immunoassay. The maximum melanin concentration, measured as the difference from baseline, was experimentally determined from the plateau of the dose response curves of NGF and NGF 1-14. The EC50 represents the concentration of NGF 1-14 or NGF at which 50% of the maximum concentration of cellular melanin is observed.

Sprague-Dawley rats = experiment: In vivo tolerability test: plantar thermal hyperalgesia test (Hargreaves apparatus), paw retraction latency; settings: for hyperalgesic activity compared to the saline group (paw retraction latency): 1, 3, 5 and 24 h after injection, P<0.001
Experimental: The in vivo intra-implant tolerability of the NGF 1-14 peptide was evaluated in comparison with the whole protein NGF.
Tyrode's isotonic solution containing the rh-NGF protein in concentrations from 5 to 20 μg/mL and the vehicle was administered intra-implantally in the dorsal region of Sprague-Dawley rats (10 animals for each concentration), in a volume of 0.05 mL using a very fine syringe.
Tyrode's isotonic solution containing the murine-NGF protein in concentrations from 5 to 20 μg/mL and the vehicle was administered intra-implantally in the dorsal region of Sprague-Dawley rats (10 animals for each concentration), in a volume of 0.05 mL using a very fine syringe.
Tyrode's isotonic solution containing the NGF 1-14 peptide in concentrations from 5 to 20 μg/mL and the vehicle was administered intra-implantally in the dorsal region of Sprague-Dawley rats (10 animals for each concentration), in a volume of 0.05 mL using a very fine syringe.
The solution was administered intra-implantally in the dorsal region of Sprague-Dawley rats (10 animals for each concentration), in a volume of 0.05 mL using a very fine syringe.
After the intra-implant injections, the Plantar thermal hyperalgesia test was conducted. In particular: after 1, 3, 5 and 24 h the thermal sensitivity was determined using the Hargreaves apparatus (HA).
Hypersensitivity to heat was assessed using the rat plantar test apparatus (Ugo Basile, Italy) following the method described by Hargreaves et al. (1988). The plantar test uses three perspex boxes (22×19×25 cm) placed on an elevated glass table. The rats were housed in each box, so that 3 rats could be tested simultaneously in a single apparatus and allowed to acclimate for at least 10 minutes. A mobile infrared heat source was applied to the plantar surface of the hind legs.
Paw retraction latency was defined as the time (in seconds) it took the rat to remove the hind leg from the heat source. The heat source was calibrated to an intensity of 15 IR and a cut-off of 50 sec was applied to prevent tissue damage. The test was performed at 1, 3, 5 and 24 hours after the injection. Each paw was tested twice per session (raw data represents the average of 2 measurements performed at an interval of approximately 5 minutes).

## NGF: Nerve growth factor, whole human NGF protein used as a control
[1]
  percentage of animals with a degree of depigmentation less than or equal to 2: 37.5%
  percentage of animals with a moderate degree of depigmentation equal to 3: 37.5%
  percentage of animals with a severe degree of depigmentation greater than or equal to 4: 25%
Sensory nerve fibers; large diameter fibers
  Nerve endings density (mm/mm^3) NF200: 350 + 50 mm/mm^3
Sensory nerve fibers; small diameter peripheral sensory fibers
  Nerve termination density unit of measurement (mm/mm^3) TRPV1: 200 + 36 mm/mm^3
[2]
  EC50: 0.06 nM

## SSSHPIFHRGEFSV [NGF 1-14, SSSHPIFHRGEFSV]
[2]
  EC50: 1200 nM
Sprague-Dawley rats; 10 μg/50 μL
  hyperalgesic activity compared to the saline group (paw retraction latency): showed hyperalgesic activity
Sprague-Dawley rats; 20 μg/50 μL
  hyperalgesic activity compared to the saline group (paw retraction latency): showed hyperalgesic activity

## rh-NGF: rh-NGF protein, whole protein NGF comparator in the tolerability test
Sprague-Dawley rats; 10 μg/50 μL
  hyperalgesic activity compared to the saline group (paw retraction latency): showed hyperalgesic activity
Sprague-Dawley rats; 10 μg/50 μL, P<0.05 at 1-3-24 h and P<0.01 at 5 h
  hyperalgesic effect compared with NGF 1-14 at 10 and 20 μg/50 μL: more pronounced significant hyperalgesic effect
